From patent US20110212040A1, “STABILIZED SUNSCREEN COMPOSITIONS” (priority 2010, published 2011)
“Also recorded” adds a separate entry of the source. One block for each molecule: values may come before it.

Assays:
Type in all cases: physicochemical
[1] = UV absorbance spectra / absorption maximum; settings: FIG. 10
[2] = Effect of phytoene/phytofluene levels and ratio variations on avobenzone stabilization; settings: combined UVA+UVB+UVC 10 h; low 0.3 mg/mL, high 1.3 mg/mL; listed as PE
Protocol: Key elements for this test are: consistent irradiation (known and consistent light source and positioning of samples with respect to the light source); optimal exposure of the sample to UV light (thin but consistent layer sample, in a flat vessel with no high walls which could screen out UV light); consistent sampling (especially recovery of irradiated material for analysis). Under the instant method, irradiation takes place in the Innova 4340 incubator, fitted with UV tubes (UVC: Osram Puritec-HNS3OVG13-G30T8/OF; UVB: Voltarc E312/F30T8; UVA: Sylvania F30T8/350BL)—allowing for intense, known, reproducible and even irradiation (a known illuminant is the single source of light—a wide light source and the incubator's metallic walls also help achieve even illumination). […]
Analysis of the avobenzone content of the samples was done by UV spectroscopy (absorption @ 350 nm for avobenzone; sample dilution ×400 in hexanes). As phytofluene absorbs in the UV range relevant to our measure of avobenzone, blank TCLC samples (i.e. without avobenzone) were irradiated in parallel with test samples and absorption @ 350 nm was measured before and after irradiation. […]

[3] = Stabilization of avobenzone in presence of single carotenoids; settings: for protective activity vs avobenzone degradation: lycopene 1.6 mg/mL in squalane
Protocol: Key elements for this test are: consistent irradiation (known and consistent light source and positioning of samples with respect to the light source); optimal exposure of the sample to UV light (thin but consistent layer sample, in a flat vessel with no high walls which could screen out UV light); consistent sampling (especially recovery of irradiated material for analysis). Under the instant method, irradiation takes place in the Innova 4340 incubator, fitted with UV tubes (UVC: Osram Puritec-HNS3OVG13-G30T8/OF; UVB: Voltarc E312/F30T8; UVA: Sylvania F30T8/350BL)—allowing for intense, known, reproducible and even irradiation (a known illuminant is the single source of light—a wide light source and the incubator's metallic walls also help achieve even illumination). Samples are exposed in Brand plastic vial caps made of polyethylene, 26 mm diameter, 5 mm wall height, 400 μL sample volume, in triplicates, generally introduced as solutions in suitable oil carriers)—enabling irradiation of a relatively even and thin layer while allowing consistent sample recovery.
Analysis of the avobenzone content of the samples was done by UV spectroscopy (absorption @ 350 nm for avobenzone; sample dilution ×400 in hexanes). As phytofluene absorbs in the UV range relevant to our measure of avobenzone, blank TCLC samples (i.e. without avobenzone) were irradiated in parallel with test samples and absorption @ 350 nm was measured before and after irradiation. This absorption was deducted from the avobenzone absorption data, producing the corrected data shown here (unless noted otherwise).
Based on the above results, degradation of avobenzone was next measured in the presence of single carotenoids, specifically: phytoene (PE), phytofluene (PF), zeta-carotene (ZC) and Lycopene (LY).
Carotenoids levels: for the purposes of these experiments, phytoene was tested at 1.3 mg/mL; phytofluene was tested at 0.3 mg/mL; zeta-carotene and lycopene were tested at 1.6 mg/mL.
Irradiation was carried out with combined UVA+UVB (4:2, 18 h) and UVA+UVB+UVC (3:2:1, 10 h).

[4] = 3% avobenzone cream, in vitro SPF/UVA-PF and photo stability (Colipa 2009); settings: UVA dose 10 J/cm^2, Suntest
Protocol: Following the convincing results from the studies described above, a preliminary study with a basic cream containing 3% avobenzone labelled 703-1, to which phytoene and phytofluene (0.0075%), was added and labelled 703-2, was conducted to determine the contribution of phytofluene to sun protection and photo stability of avobenzone under UVA following the Colipa 2009 in vitro Standard Guidelines. Approximately 1.7 mg/cm^2 of each composition is applied to 5 PMMA plates (Helioplates-HD-6, Helioscreen®, Source: Labsphere, North Sutton, N.H.), respectively, and allowed to equilibrate for at least 15 minutes. Absorbance spectra from 5 locations on each plate are measured using a UV2000 Sunscreen Analyzer (Labsphere, North Sutton, N.H.). […] Plate temperatures are 25-35° C. Mean UVA protection factors at each UV dose are then computed for each test product, using Colipa UVA Protection Factor Test Method Spreadsheet, and mean absorbance spectra from 290 to 400 nm is obtained.

λmax of absorbance spectra [1]: 286 nm
Structure (SMILES): CC(C)=CCC/C(C)=C/CC/C(C)=C/CC/C(C)=C/C=C/C=C(\C)CC/C=C(\C)CC/C=C(\C)CCC=C(C)C [phytoene]
protective activity vs degradation of avobenzone [2]: level-dependent; also recorded: roughly comparable activities

protective activity vs avobenzone degradation ([3]; combined UVA+UVB 4:2, 18 h): slight protective activity
protective activity vs avobenzone degradation ([3]; combined UVA+UVB+UVC 3:2:1, 10 h): no significant activity
Structure (SMILES): CC(C)=CCC/C(C)=C/C=C/C(C)=C/C=C/C(C)=C/C=C/C=C(C)/C=C/C=C(C)/C=C/C=C(\C)CCC=C(C)C [Lycopene]

λmax of absorbance spectra [1]: 348 nm
Structure (SMILES): CC(C)=CCC/C(C)=C/CC/C(C)=C/C=C/C(C)=C/C=C/C=C(\C)CC/C=C(\C)CC/C=C(\C)CCC=C(C)C [phytofluene]
boost to UVA-PF [4]: addition to UVA-Pf

stabilizing / protective effect on avobenzone ([3]; UVA+UVB (18 h) and UVA+UVB+UVC (10 h), not distinguished, phytoene 1.3, phytofluene 0.3, zeta-carotene 1.6 mg/mL): some protective activity
Structure (SMILES): CC(C)=CCC/C(C)=C/CC/C(C)=C/C=C/C(C)=C/C=C/C=C(C)/C=C/C=C(\C)CC/C=C(\C)CCC=C(C)C [Zeta-carotene, zeta-carotene]
